Measurements from patent publication US20050288255A1, “Modulation of lysophosphatidylcholine and treatment of diet-induced conditions” (priority 2004, published 2005).

What was measured:
Type in all cases: cell-based
[1] = test system: L6 myotube; assay: Insulin-stimulated [14C]glucose conversion to glycogen in differentiated L6 myotubes with varying LPC; details: 100 nM insulin, under reduced levels of lysophosphatidylcholine, FIG. 5(b)
Method: (§1) Effects of LPC on glucose metabolism were assessed using (a) HepG2 cells as a model of liver cells, (b) differentiated L6 myotubes as a model of skeletal muscle cells and (c) differentiated 3T3L1 cells as a model of adipocytes. To assess usage of glucose for glycogen biosynthesis, cells were incubated in Krebs Ringer Hepes medium with 5 mM [^14C]glucose, 100 nM insulin, and varying concentrations of LPC. At the end of the incubation period, the cells were washed and detached from the plates with 30% KOH. Carrier glycogen was then added to the cell lysate at a concentration of 40 mg/ml and then boiled for 30 min. Glycogen was precipitated from the solution by the addition of 800 μl 95% ice-cold ethanol and centrifuged at 1000×g. The pellet was re-suspended in buffer, and an aliquot of the sample was counted in a scintillation counter to determine the amount of [^14C]glucose converted to glycogen. Glucose metabolism by differentiated 3T3L1 cells was assessed based on cellular uptake of [^3H]deoxyglucose. The 3T3L1 cells were incubated in Krebs Ringer Hepes medium with 5 mM [^3H]deoxyglucose, 100 nM insulin, and varying concentration of LPC. Glucose uptake was assessed based on cellular accumulation of [^3H]deoxyglucose after a 30 min incubation period.

[2] = test system: HepG2 cells; assay: Insulin-stimulated [14C]glucose conversion to glycogen in HepG2 cells with varying LPC; details: 100 nM insulin, under reduced levels of lysophosphatidylcholine, FIG. 5(a)
Method: as §1

[3] = test system: 3T3L1 adipocytes; assay: Insulin-stimulated [3H]deoxyglucose uptake in differentiated 3T3L1 adipocytes with varying LPC; details: 100 nM insulin, 30 min, under reduced levels of lysophosphatidylcholine, FIG. 5(c)
Method: as §1

Measured: insulin-stimulated glucose metabolism

lysophosphatidylcholine
increased: [1] | [2] | [3]
